Test results: EP0934745B1, “Use of androsterone derivatives for inhibiting DNA binding of ap-1 and airway smooth muscle proliferation” (CHARLOTTE-MECKLENBURG HOSPITAL doing business as Carolinas …, priority 1998, dated 1999)

Biological target: T1, glucose-6-phosphate dehydrogenase (G6PDH) (Rattus norvegicus, UniProt P05370)
T1 construct: endogenous in cells; host or cells: primary rat tracheal (airway) smooth muscle cells
Assay: G6PDH activity in airway smooth muscle cell lysates, inhibitors added to the lysate
Assay type: biochemical
Settings: 100 µl, read-out: PERCENT INHIBITION OF GLUCOSE 6-PHOSPHATE DEHYDROGENASE ACTIVITY
Method: After 1 hour cells were lysed and G6PDH activity was assayed as described below. In other experiments, G6PDH activity was measured in cell lysates prepared from untreated confluent cultures and treated in vitro with DHEA or 16α-BrEA added to the reaction mixture in 5 µl DMSO. […] Ribonucleosides or deoxyribonucleosides were dissolved in 0.5 ml of 1 N HCl and added to DMEM. The pH of the medium was adjusted to 7.1 by titration with 1 N NaOH, and medium was then sterilized by passage through a […] filter. Growth was measured by MTT reduction after 24, 48 and 96 hours.
To determine if DHEA or its analogs induced programmed cell death, confluent cultures in 6 well plastic plates were treated with 50 or 250 µM DHEA, 10 or 50 µM 16α-BrEA, or vehicle (25 µl DMSO). After 2 hours cells were washed twice with DPBS and scraped on ice into 1.5 ml microfuge tubes and centrifuged 250 g for 5 minutes at 4°C. The cell pellet was gently resuspended in 30 µl DPBS and lysed by addition of 30 µl lysis buffer (80 mM EDTA, 1.6% [wt/vol] sodium lauryl sarcosinate and 5 mg/ml proteinase K in 200 mM Tris-HCl buffer, pH 8.0). Lysate was incubated at 50°C for 1.5 hours. RNAse A (0.2 mg/ml) was added and the lysate was incubated for another 30 minutes at 37°C. DNA bands were separated along with a DNA ladder standard on a 1% agarose gel at 60 V for 1 hour, intercalated with ethidium bromide, and visualized and photographed under ultraviolet light. Measurement of Glucose-6-Phosphate Dehydrogenase Activity. Cultures were washed three times with cold DPBS on ice, scraped into ice cold buffer (10 mM MgCl2 in 50 mM Tris, pH 8.0) and sonicated on ice. G6PDH activity was then assayed by the method of Jones and Andrews (Jones, J.T., and Andrews, S.G., "Glucose-6-phosphate dehydrogenase activity in somatic and germinal cells of the mouse testis," J. Reproduc. Fertility, 54, 357-362 (1978)) in a reaction mixture containing 50-200 µl cell lysate, 20 µl of 10 mM β-nicotinamide adenine dinucleotide phosphate (NADP) and 20 µl of 10 mM D-glucose-6-phosphate (G6P) in a total volume of 1 ml buffer (10 mM MgCl2 in 50 mM Tris, pH 8.0). The reaction was initiated by addition of G6P. The linear increase in absorbance at 340 nm was monitored at 25°C for 300 seconds. Activity was expressed as units/mg protein, where 1.0 unit will oxidase 1.0 µmole of G6P to 6-phospho-D-gluconate per min in the presence of NADP. Protein was measured using the BCA protein assay (Rockford, IL). Immunoblot Assay for p21^ras and c-fos Proteins. For measurement of p21^ras, cells were washed twice-with cold DPBS and swelled on ice for 15 minutes with 500 µl cold lysis buffer (10 mM HEPES, 1 mM MgCl2, 1 mM EDTA, 1 µM pepstatin, 2 µg/ml aprotinin, and 1 mM phenylmethylsulfonyl fluoride). See Schulz and Nyce (1991), supra. Cells were then scraped into 1.5 ml polypropylene tubes, homogenized and clarified by centrifugation at 3,000 g for 1 minute at 4°C. The postnuclear supernatant was centrifuged 100,000 g for 30 minutes at 4°C. Supernatants were collected and pelleted membranes were resuspended in detergent buffer (1% Triton X-100, 1% sodium deoxycholate, 0.1% SDS, 150 mM NaCl, 1 µM pepstatin, 2 µg/ml aprotinin and 1 mM phenylmethylsulfonyl fluoride in 25 mM Tris, pH 7.4). Aliquots of supernatant and membrane fractions were removed for protein determination using the BCA protein assay. […]
Activity is expressed as % inhibition of DMSO vehicle-treated controls by 16α-bromoepiandrosterone (BrEA) or dehydroepiandrosterone (DHEA). […]

T1 sequence (P05370 whole entry): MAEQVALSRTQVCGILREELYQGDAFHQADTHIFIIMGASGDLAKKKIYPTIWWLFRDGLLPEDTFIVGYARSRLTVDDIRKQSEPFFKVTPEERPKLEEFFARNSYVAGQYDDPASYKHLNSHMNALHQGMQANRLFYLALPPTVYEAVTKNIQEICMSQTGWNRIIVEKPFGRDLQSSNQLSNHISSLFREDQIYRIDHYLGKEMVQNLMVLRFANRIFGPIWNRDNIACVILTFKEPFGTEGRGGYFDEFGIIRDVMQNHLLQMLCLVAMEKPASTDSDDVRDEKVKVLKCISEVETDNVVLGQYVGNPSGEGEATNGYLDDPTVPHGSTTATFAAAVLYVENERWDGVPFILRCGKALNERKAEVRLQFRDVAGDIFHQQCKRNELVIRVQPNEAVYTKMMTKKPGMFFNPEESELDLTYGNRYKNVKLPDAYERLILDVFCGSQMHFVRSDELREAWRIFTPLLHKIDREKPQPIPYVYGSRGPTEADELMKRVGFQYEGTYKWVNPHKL

Row | SMILES | inhibition at 25 µM [%] | inhibition at 50 µM [%] | inhibition at 100 µM (100 µM) [%]
1 | C[C@]12CC[C@H](O)C[C@@H]1CC[C@@H]1[C@@H]2CC[C@]2(C)C(=O)[C@H](Br)C[C@@H]12 [16α-BrEA, 16α-bromoepiandrosterone] | 49 | 71 ± 8 | –
2 | C[C@]12CC[C@H](O)CC1=CC[C@@H]1[C@@H]2CC[C@]2(C)C(=O)CC[C@@H]12 [DHEA, dehydroepiandrosterone] | 77 ± 3 | 82 ± 3 | 93 ± 3
